Data: ChEMBL document CHEMBL4616637, “Proximicins F and G and Diproximicin A: Aminofurans from the Marine-Derived Verrucosispora sp. SCSIO 40062 by Overexpression of PPtase Genes” (J Nat Prod, 2020)
Values after ≈ are worked out from the molar mass of the structure shown. Active and inactive are the calls of the source. The calls are words filed in the database; no cut-off is given here.

Assays:
Staphylococcus aureus [1] = test: Antibacterial activity against Staphylococcus aureus ATCC 29213 by CLSI based susceptibility test method; format: functional
Bacillus subtilis = test: Antibacterial activity against Bacillus subtilis 1064 by CLSI based susceptibility test method; format: functional
Homo sapiens = species on record: Homo sapiens; test: Inhibition of alpha-glucosidase (unknown origin) at 20 uM using pNPG as substrate preincubated for 15 mins followed by substrate addition and measured after 15 mins
MCF7 = test: Cytotoxicity against human MCF7 cells assessed as reduction in cell viability after 48 hrs by SRB assay; format: functional, cell-based; conditions: MCF7, 48 h
[2] = target: Acetylcholinesterase (Electrophorus electricus) (UniProt O42275); test: Inhibition of electric eel AChE at 20 uM using acetylthiocholine iodide as substrate incubated for 6 mins by Ellman's method
Acetylcholinesterase (Electrophorus electricus), sequence (O42275 24-633 limits assumed): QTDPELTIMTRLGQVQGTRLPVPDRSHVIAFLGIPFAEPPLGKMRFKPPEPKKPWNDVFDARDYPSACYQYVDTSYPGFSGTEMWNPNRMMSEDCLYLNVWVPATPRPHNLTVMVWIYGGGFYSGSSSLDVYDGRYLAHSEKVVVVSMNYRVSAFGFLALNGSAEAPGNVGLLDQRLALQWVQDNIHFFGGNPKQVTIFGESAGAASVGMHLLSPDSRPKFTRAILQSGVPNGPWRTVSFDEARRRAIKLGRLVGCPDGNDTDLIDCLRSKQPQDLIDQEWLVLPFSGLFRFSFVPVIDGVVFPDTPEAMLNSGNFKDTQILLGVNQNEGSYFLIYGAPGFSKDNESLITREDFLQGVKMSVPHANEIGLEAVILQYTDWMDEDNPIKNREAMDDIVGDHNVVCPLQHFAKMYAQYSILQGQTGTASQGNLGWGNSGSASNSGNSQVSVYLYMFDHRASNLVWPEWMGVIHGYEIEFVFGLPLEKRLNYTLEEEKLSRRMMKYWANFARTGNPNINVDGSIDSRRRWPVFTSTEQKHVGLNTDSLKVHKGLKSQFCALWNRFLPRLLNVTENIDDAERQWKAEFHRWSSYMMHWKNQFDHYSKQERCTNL

Micrococcus luteus = test: Antibacterial activity against Micrococcus luteus SCSIO ML01 by CLSI based susceptibility test method; format: functional
A549 = test: Cytotoxicity against human A549 cells assessed as reduction in cell viability after 48 hrs by SRB assay; format: functional, cell-based; conditions: A549, 48 h
[3] = target: T1, Tyrosinase (Homo sapiens) (UniProt P14679); test: Inhibition of tyrosinase (unknown origin) at 20 uM using L-DOPA as substrate
T1 sequence (whole entry): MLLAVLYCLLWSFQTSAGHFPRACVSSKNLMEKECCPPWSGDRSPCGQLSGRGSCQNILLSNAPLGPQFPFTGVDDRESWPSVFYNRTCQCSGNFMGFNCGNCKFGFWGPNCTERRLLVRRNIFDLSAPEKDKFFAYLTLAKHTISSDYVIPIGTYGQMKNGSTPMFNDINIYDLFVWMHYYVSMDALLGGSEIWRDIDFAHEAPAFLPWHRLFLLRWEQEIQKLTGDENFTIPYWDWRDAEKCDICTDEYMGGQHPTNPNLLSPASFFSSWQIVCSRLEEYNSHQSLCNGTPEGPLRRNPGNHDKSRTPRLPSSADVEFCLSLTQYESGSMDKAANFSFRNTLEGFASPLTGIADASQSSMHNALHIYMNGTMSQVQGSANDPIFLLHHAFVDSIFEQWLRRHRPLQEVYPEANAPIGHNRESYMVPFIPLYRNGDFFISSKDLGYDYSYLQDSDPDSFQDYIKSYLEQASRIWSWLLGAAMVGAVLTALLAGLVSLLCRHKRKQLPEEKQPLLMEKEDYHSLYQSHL

HepG2 = test: Cytotoxicity against human HepG2 cells assessed as reduction in cell viability after 48 hrs by SRB assay; format: functional, cell-based; conditions: HepG2, 48 h
Staphylococcus aureus [4] = test: Antibacterial activity against methicillin-resistant Staphylococcus aureus shhsA1 by CLSI based susceptibility test method; format: functional
SF-268 = test: Cytotoxicity against human SF268 cells assessed as reduction in cell viability after 48 hrs by SRB assay; format: functional, cell-based; conditions: SF-268, 48 h

SMILES | MIC (Staphylococcus aureus [1]) [µg/mL] | MIC (Bacillus subtilis) [µg/mL] | inhibition (Homo sapiens) | IC50 (MCF7) [µM] | inhibition [2] | MIC (Micrococcus luteus) [µg/mL] | IC50 (A549) [µM] | inhibition [3] | IC50 (HepG2) [µM] | MIC (Staphylococcus aureus [4]) [µg/mL] | IC50 (SF-268) [µM]
CNC(=O)c1cc(NC(=O)c2cc(NC(=O)OC)co2)co1 | > 64 | > 64 | inactive | > 10 | inactive | > 64 | > 10 | inactive | > 10 | > 64 | > 10
COC(=O)Nc1coc(C(=O)Nc2coc(C(=O)NCCCCCNC(=O)c3cc(NC(=O)c4cc(NC(=O)OC)co4)co3)c2)c1 | > 64 | > 64 | inactive | > 10 | inactive | > 64 | > 10 | inactive | > 10 | > 64 | > 10
COC(=O)Nc1coc(C(=O)Nc2coc(C(=O)NCCc3ccccc3)c2)c1 | > 64 | 32 (≈ 80.5 µM) | inactive | – | inactive | > 64 | – | inactive | – | > 64 | –
CC1(C)S[C@@H]2[C@H](NC(=O)[C@H](N)c3ccccc3)C(=O)N2[C@H]1C(=O)O [AMPICILLIN] | 0.25 (≈ 0.715 µM) | 0.25 (≈ 0.715 µM) | – | – | – | 0.5 (≈ 1.43 µM) | – | – | – | > 64 | –
C[S+](C)[O-] [DIMETHYL SULFOXIDE] | > 64 | > 64 | – | – | – | > 64 | – | – | – | > 64 | –
COC(=O)Nc1coc(C(=O)Nc2coc(C(=O)NCCc3ccc(O)cc3)c2)c1 [PROXIMICIN B] | 16 (≈ 38.7 µM) | 8 (≈ 19.4 µM) | inactive | > 10 | inactive | > 64 | > 10 | inactive | > 10 | 16 (≈ 38.7 µM) | > 10
COC(=O)Nc1coc(C(=O)Nc2coc(C(=O)NCCc3c[nH]c4ccccc34)c2)c1 [PROXIMICIN C] | > 64 | > 64 | inactive | > 10 | inactive | > 64 | > 10 | inactive | > 10 | > 64 | > 10
COc1cc(Cc2cnc(N)nc2N)cc(OC)c1OC [TRIMETHOPRIM] | 2 (≈ 6.89 µM) | 0.25 (≈ 0.861 µM) | – | – | – | 2 (≈ 6.89 µM) | – | – | – | > 64 | –
CN[C@H](CC(C)C)C(=O)N[C@H]1C(=O)N[C@@H](CC(N)=O)C(=O)N[C@H]2C(=O)N[C@H]3C(=O)N[C@H](C(=O)N[C@H](C(=O)O)c4cc(O)cc(O)c4-c4cc3ccc4O)[C@H](O)c3ccc(c(Cl)c3)Oc3cc2cc(c3O[C@@H]2O[C@H](CO)[C@@H](O)[C@H](O)[C@H]2O[C@H]2C[C@](C)(N)[C@H](O)[C@H](C)O2)Oc2ccc(cc2Cl)[C@H]1O [VANCOMYCIN] | – | 0.5 (≈ 0.345 µM) | – | – | – | 0.25 (≈ 0.173 µM) | – | – | – | – | –
